Data from PubChem BioAssay (NCI).
Where “and” joins values, the source holds several entries; their conditions need not be identical. Equal entries are not always repeated.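 The compound was tested at five concentrations on cells cultured in 96-well plates, with a 48-hour exposure period. GI50: concentration for 50% inhibition of growth. The concentration for full growth arrest is given as TGI.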

Assays:
Assay in all cases: inhibition of tumour cell growth, NCI panel, 48 h
[1] = test system: LOX IMVI melanoma
[2] = test system: NCI-H460 lung
[3] = test system: SK-MEL-28 melanoma
[4] = test system: NCI/ADR-RES ovarian
[5] = test system: HOP-92 NSCLC
[6] = test system: OVCAR-8 ovarian
[7] = test system: UACC-257 melanoma
[8] = test system: HCT-116 colon
[9] = test system: T-47D breast
[10] = test system: UACC-62 melanoma

SMILES | TGI [1] [µM] | TGI [2] | TGI [3] [µM] | TGI [4] [µM] | TGI [5] [µM] | TGI [6] [µM] | TGI [7] [µM] | TGI [8] [µM] | TGI [9] [µM] | TGI [10] [µM] | GI50 [5] [µM] | GI50 [9] [µM] | GI50 [10] [µM] | GI50 [1] [µM] | GI50 [2] [µM] | GI50 [6] [µM] | GI50 [8] [µM]
O=C(/C=C/c1ccc(O)c(-c2cc(C(=O)/C=C/c3ccc(O)cc3)c(O)cc2O)c1)c1ccc(O)cc1O | 43.1 | > 50 µM | 22.1 | > 50 | > 50 | 24.7 | > 50 | 23.7 | > 50 | 20.4 |  |  |  |  |  |  | 
CCCNC(=O)CCC(C)C1CCC2C3C(C[C@H](OC(C)=O)[C@]12C)[C@@]1(C)CCC2(C[C@H]1C[C@H]3OC(C)=O)OOC1(CC[C@]3(C)C4C[C@H](OC(C)=O)[C@]5(C)C(C(C)CCC(=O)NCCC)CCC5C4[C@H](OC(C)=O)C[C@@H]3C1)OO2 (some centres undefined) | > 100 | > 100 µM | > 100 | > 100 | > 68.4 | > 93.9 | > 100 | > 100 | > 100 | > 100 | 7.51 | > 100 | > 67 |  |  |  | 
[N-]=[N+]=CC(=O)c1ccccc1C#CCCc1ccccc1 | > 100 | > 100 µM | > 100 |  | 63.6 | > 100 | 94.7 | 48.9 |  | 69.8 |  |  |  |  |  |  | 
CC1=CC(=O)c2ccccc2C1=O | 5.72 | 24.5 µM | 16.6 | 30.2 | 2.94 | 22.7 | 9.08 | 5.33 | 5.33 | 10.3 |  |  |  |  |  |  | 
CCC1CN(C(=O)c2ccccc2)C(Cc2c[nH]c3ccccc23)C(=O)C1CC(=O)OC (centres undefined) | > 100 | > 100 µM | > 100 | > 100 | > 100 | > 100 | > 100 |  | > 100 | > 100 |  |  |  |  |  |  | 
CCOC(=O)C1=NN(c2ccc(C)cc2)C2=CC(C)=NN(C)C(=S)N21 | > 100 | > 100 µM | > 100 | > 100 |  | > 100 | > 100 | > 100 | 61.3 | > 100 |  |  |  |  |  |  | 
Nc1ccccc1S(=O)(=O)c1ccccc1 | > 100 | > 100 µM | > 100 |  | > 100 | > 100 | > 100 | > 100 |  | > 100 |  |  |  |  |  |  | 
Cc1c(N2C(=O)CS(=O)(=O)C2c2cccc(Oc3ccccc3)c2)c(=O)n(-c2ccccc2)n1C (centres undefined) | > 100 | > 100 µM | > 100 | > 100 | > 100 | > 100 | > 100 | > 100 | > 100 | > 100 |  |  |  |  |  |  | 
O=c1[nH]nc(NNc2ccccc2)c2nnn(C3CCCCC3)c12 | > 100 | > 100 µM | > 100 | > 100 | > 100 | > 100 | > 100 | > 100 |  |  |  |  |  |  |  |  | 
COc1nc(C#CC2(O)CCCCC2)nc(OC)n1 | 11.7 | 78.6 µM | 30.2 | 68.9 |  | 39.8 | 31.7 | > 100 | > 100 | 20.2 |  |  |  |  |  |  | 
COc1ccc(C(=O)c2sc(Nc3ccc(Cl)cc3)nc2N)cc1 | > 100 | 36.3 µM | > 100 | > 69.5 | > 63.5 | > 100 | > 90.2 | > 34.4 | > 100 | > 100 |  |  |  |  |  |  | 
CCn1c(-c2ccc(N=NNc3ccc(-c4n[nH]c(=S)n4CC)cc3)cc2)n[nH]c1=S | > 100 |  | > 100 | > 100 | 7.71 | 6.96 | > 100 | > 100 | 4.35 |  |  |  |  |  |  |  | 
O=C(C[n+]1ccc2ccccc2c1)c1ccc2ccc3ccccc3c2c1 | 6.57 | 5.85 µM | 9.08 | 32.7 | 18.8 | 19.8 | 5.64 | 13.6 | 19.3 | 9.72 |  |  |  |  |  |  | 
CC(C)(C)c1cc(C2=NNC(c3ccccc3)C2)cc(C(C)(C)C)c1O (centres undefined) | 29.6 | 29.7 µM | 31.5 | 38.7 | 31.2 | 31.7 | 27.5 | 28.3 | 26.8 | 28 |  |  |  |  |  |  | 
COc1cccc2c1Cc1cc(-c3ccccc3)[n+](C)n1-2 | 29.3 | 40.4 µM | > 100 | > 100 | 66.4 | > 100 | 14.4 | 15.8 | 17.7 | 30.3 |  |  |  |  |  |  | 
CCCCCCCCC/C=C/C=C/C(=O)NCC(=O)NC1C(O)C(O)C(Nc2ncnc3nc[nH]c23)OC1C(O)CO (centres undefined) | 0.0396 | 1.23 µM and 0.321 µM | 3.25 |  |  | 0.077 | 0.207 | > 100 |  | 0.0171 |  |  |  | 0.00735 | 0.00278 | 0.00555 | 0.00251
O=C(OCN1C(=O)C2C3C=CC(C2C1=O)C1C2C(=O)N(COC(=O)C4CCCN4)C(=O)C2C31)C1CCCN1 (centres undefined) | > 64.5 | > 56.5 µM | > 100 |  | > 100 | 67.5 | > 100 | > 53.7 |  | > 100 |  |  |  |  |  |  | 
O=C(/C=C/c1ccccc1)NNC(=O)c1c(Cl)c(Cl)c(Cl)c(Cl)c1-c1nc2ccccc2[nH]1 | 59.6 | 61 µM | > 100 | 64.9 | 45.7 | > 100 | 99.1 | 53.6 | 60.6 | > 100 |  |  |  |  |  |  | 
Nc1nc(SCCc2ccccc2)nc2nc3c(c(-c4ccccc4)c12)CCCC3 | > 100 | > 100 µM | > 100 | > 100 |  | > 100 | > 100 |  | > 100 | > 100 |  |  |  |  |  |  | 
CC12CC3OC(=O)C1COC14OC5(C2C1=O)C(O)(CCC1C4CC(O)C2(O)CC=CC(=O)C12C)C(=O)OC35C (centres undefined) | > 100 | > 100 µM | > 100 | > 100 | > 100 | > 100 | > 100 | > 100 | > 100 | > 100 |  |  |  |  |  |  | 
